From US10696707B2, “Polyene macrolide derivative” (Shionogi & Co., Ltd., priority 2014, dated 2020)
≈ marks a conversion by molar mass, not a printed value. Where two headings read alike, the source gives them in different places.

Experiments:
Assay type in all cases: cell-based
[1] = tested on: C. albicans ATCC90028; experiment: Antifungal activity test, MIC by broth microdilution (CLSI M27-A3); conditions: C. albicans ATCC90028, 35° C., 24-48 hours
Description: (§1) The Minimum Inhibitory Concentration (MIC) values of the present compound against yeast and filamentous fungi were determined by broth microdilution assay according to the Clinical Laboratory Standards Institute (CLSI) guidelines outlined in documents M27-A3 and M38-A2. The medium used in the assay consisted of RPMI1640 (with glutamine, without bicarbonate) with 2% glucose and 0.165 mol/L morpholinepropanesulfonic acid (MOPS) with pH adjusted to 7.0 using 1 mol/L sodium hydroxide. The present compound was dissolved in dimethyl sulfoxide (DMSO). A series of two-fold dilutions were prepared in DMSO, and then 2 μL of the diluted compound was added to each well in 96-well sterile plates. Each inoculum was prepared by diluting a suspension of Candida spp. or a conidia suspension of Aspergillus spp. suspended in sterile saline solution, and then 200 μL was added to each well to a predetermined concentration using RPMI/MOPS (final concentration for each solution: approximately 1×10^3 cells/mL and approximately 1×10^4 CFU/mL). Plates of Candida spp. and Aspergillus spp. were incubated at 35° C. for 24-48 hours. The MIC was defined as the lowest concentration giving 100% inhibition compared to the growth control.

[2] = tested on: A. flavus ATCC204304; experiment: Antifungal activity test, MIC by broth microdilution (CLSI M38-A2); conditions: A. flavus ATCC204304, 35° C., 24-48 hours
Description: as §1

[3] = tested on: A. fumigatus ATCC204305; experiment: as above; conditions: A. fumigatus ATCC204305, 35° C., 24-48 hours
Description: as §1

[4] = tested on: red blood cells (5% RBC suspension); experiment: Test Example 2-1: in vitro hemolytic activity test (upper limit 50, 80, 100 or 200 μmol/L); conditions: 5% RBC suspension, 37° C., one hour, read-out: hemolysis IC50
In short: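 A 5% suspension of washed red cells in Earle's medium was exposed to doubling dilutions of compound from DMSO, with maxima of 50, 80, 100 or 200 μmol/L final, for 1 h at 37 °C, 5% CO2. Supernatant absorbance at 540 nm was normalised to water-lysed cells. IC50 is the concentration giving 50% hemolysis; ">" values exceed the top concentration.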

[5] = broth microdilution, 100% inhibition
[6] = hemolysis method 50 (upper concentration 50 μmol/L)
[7] = lowest concentration giving 100% inhibition

Row | Structure (SMILES) | MIC [1, 7] | MIC [2, 7] | MIC [3, 7] | also measured
1 | C[C@@H]1[C@H](O)[C@@H](C)/C=C/C=C/C=C/C=C/C=C/C=C/C=C/[C@H](O[C@@H]2O[C@H](C)[C@@H](O)[C@H](N)[C@@H]2O)C[C@@H]2O[C@](O)(C[C@@H](O)C[C@@H](O)[C@H](O)CC[C@@H](O)C[C@@H](O)CC(=O)O[C@H]1C)C[C@H](O)[C@H]2NC(=O)NC(CO)CO [I-40] | – | – | – | MIC ([1]; Candida albicans, broth microdilution, 100% inhibition, read-out: MIC): 0.125 µg/mL (≈ 0.123 µM); MIC ([2]; Aspergillus flavus, broth microdilution, 100% inhibition, read-out: MIC): 0.5 µg/mL (≈ 0.494 µM); MIC ([3]; Aspergillus fumigatus, broth microdilution, 100% inhibition, read-out: MIC): 0.25 µg/mL (≈ 0.247 µM); IC50 ([4]; Erythrocyte, 1 h, hemolysis method 80 (upper concentration 80 μmol/L)): > 80 µM
2 | C[C@@H]1[C@H](O)[C@@H](C)/C=C/C=C/C=C/C=C/C=C/C=C/C=C/[C@H](O[C@@H]2O[C@H](C)[C@@H](O)[C@H](N)[C@@H]2O)C[C@@H]2O[C@](O)(C[C@@H](O)C[C@@H](O)[C@H](O)CC[C@@H](O)C[C@@H](O)CC(=O)O[C@H]1C)C[C@H](O)[C@H]2NC(=O)NC[C@H](O)CC(=O)O [I-250] | – | – | – | MIC [1, 5]: 0.5 µg/mL (≈ 0.481 µM); MIC [2, 5]: 0.5 µg/mL (≈ 0.481 µM); MIC [3, 5]: 1 µg/mL (≈ 0.961 µM); IC50 [4, 6]: > 50 µM
3 | C[C@@H]1[C@H](O)[C@@H](C)/C=C/C=C/C=C/C=C/C=C/C=C/C=C/[C@H](O[C@@H]2O[C@H](C)[C@@H](O)[C@H](N)[C@@H]2O)C[C@@H]2O[C@](O)(C[C@@H](O)C[C@@H](O)[C@H](O)CC[C@@H](O)C[C@@H](O)CC(=O)O[C@H]1C)C[C@H](O)[C@H]2NC(=O)NC[C@H](O)C(=O)O [I-259] | – | – | – | MIC [1, 5]: 0.5 µg/mL (≈ 0.487 µM); MIC [2, 5]: 0.5 µg/mL (≈ 0.487 µM); MIC [3, 5]: 1 µg/mL (≈ 0.974 µM); IC50 [4, 6]: > 50 µM
4 | C[C@@H]1[C@H](O)[C@@H](C)/C=C/C=C/C=C/C=C/C=C/C=C/C=C/[C@H](O[C@@H]2O[C@H](C)[C@@H](O)[C@H](N)[C@@H]2O)C[C@@H]2O[C@](O)(C[C@@H](O)C[C@@H](O)[C@H](O)CC[C@@H](O)C[C@@H](O)CC(=O)O[C@H]1C)C[C@H](O)[C@H]2NC(=O)N1CCC1C(=O)O (some centres unmarked) [I-284] | – | – | – | MIC [1, 5]: 0.5 µg/mL (≈ 0.489 µM); MIC [2, 5]: 0.5 µg/mL (≈ 0.489 µM); MIC [3, 5]: 1 µg/mL (≈ 0.978 µM); IC50 [4, 6]: > 50 µM
5 | C[C@@H]1[C@H](O)[C@@H](C)/C=C/C=C/C=C/C=C/C=C/C=C/C=C/[C@H](O[C@@H]2O[C@H](C)[C@@H](O)[C@H](N)[C@@H]2O)C[C@@H]2O[C@](O)(C[C@@H](O)C[C@@H](O)[C@H](O)CC[C@@H](O)C[C@@H](O)CC(=O)O[C@H]1C)C[C@H](O)[C@H]2NC(=O)NC[C@@H](O)C(=O)O [I-311] | – | – | – | MIC [1, 5]: 0.5 µg/mL (≈ 0.487 µM); MIC [2, 5]: 0.5 µg/mL (≈ 0.487 µM); MIC [3, 5]: 0.5 µg/mL (≈ 0.487 µM); IC50 [4, 6]: > 50 µM
6 | C[C@@H]1[C@H](O)[C@@H](C)/C=C/C=C/C=C/C=C/C=C/C=C/C=C/[C@H](O[C@@H]2O[C@H](C)[C@@H](O)[C@H](NC(=O)CN(C)C)[C@@H]2O)C[C@@H]2O[C@](O)(C[C@@H](O)C[C@@H](O)[C@H](O)CC[C@@H](O)C[C@@H](O)CC(=O)O[C@H]1C)C[C@H](O)[C@H]2NC(N)=O [I-325] | 0.25 µg/mL (≈ 0.244 µM) | 0.5 µg/mL (≈ 0.489 µM) | 1 µg/mL (≈ 0.977 µM) | –
7 | C[C@@H]1[C@H](O)[C@@H](C)/C=C/C=C/C=C/C=C/C=C/C=C/C=C/[C@H](O[C@@H]2O[C@H](C)[C@@H](O)[C@H](NC(=O)CN(C)C)[C@@H]2O)C[C@@H]2O[C@](O)(C[C@@H](O)C[C@@H](O)[C@H](O)CC[C@@H](O)C[C@@H](O)CC(=O)O[C@H]1C)C[C@H](O)[C@H]2NC(=O)NNC(N)=O [I-326] | 0.25 µg/mL (≈ 0.231 µM) | 1 µg/mL (≈ 0.925 µM) | 1 µg/mL (≈ 0.925 µM) | –
8 | C[C@@H]1[C@H](O)[C@@H](C)/C=C/C=C/C=C/C=C/C=C/C=C/C=C/[C@H](O[C@@H]2O[C@H](C)[C@@H](O)[C@H](NC(=N)N)[C@@H]2O)C[C@@H]2O[C@](O)(C[C@@H](O)C[C@@H](O)[C@H](O)CC[C@@H](O)C[C@@H](O)CC(=O)O[C@H]1C)C[C@H](O)[C@H]2NC(=O)NNC(N)=O [I-330] | 0.25 µg/mL (≈ 0.241 µM) | 1 µg/mL (≈ 0.963 µM) | 1 µg/mL (≈ 0.963 µM) | –
9 | CONC(=O)N[C@H]1[C@@H]2C[C@@H](O[C@@H]3O[C@H](C)[C@@H](O)[C@H](NC(=N)N)[C@@H]3O)/C=C/C=C/C=C/C=C/C=C/C=C/C=C/[C@H](C)[C@@H](O)[C@@H](C)[C@H](C)OC(=O)C[C@H](O)C[C@H](O)CC[C@@H](O)[C@H](O)C[C@H](O)C[C@](O)(C[C@@H]1O)O2 [I-331] | 0.25 µg/mL (≈ 0.247 µM) | 1 µg/mL (≈ 0.99 µM) | 1 µg/mL (≈ 0.99 µM) | –
10 | C[C@@H]1[C@H](O)[C@@H](C)/C=C/C=C/C=C/C=C/C=C/C=C/C=C/[C@H](O[C@@H]2O[C@H](C)[C@@H](O)[C@H](NC(=N)N)[C@@H]2O)C[C@@H]2O[C@](O)(C[C@@H](O)C[C@@H](O)[C@H](O)CC[C@@H](O)C[C@@H](O)CC(=O)O[C@H]1C)C[C@H](O)[C@H]2NC(=O)NNC(=O)[C@H](O)CO [I-367] | – | – | – | MIC ([1]; Candida albicans, lowest concentration giving 100% inhibition, read-out: MIC): 0.25 µg/mL (≈ 0.231 µM); MIC ([2]; Aspergillus flavus, lowest concentration giving 100% inhibition, read-out: MIC): 0.5 µg/mL (≈ 0.462 µM); MIC ([3]; Aspergillus fumigatus, lowest concentration giving 100% inhibition, read-out: MIC): 1 µg/mL (≈ 0.923 µM)

The next lines start with results.

Row | MIC [1, 7] | MIC [2, 7] | MIC [3, 7] | Structure (SMILES) | also measured
11 | 0.25 µg/mL (≈ 0.238 µM) | 0.5 µg/mL (≈ 0.476 µM) | 1 µg/mL (≈ 0.951 µM) | C[C@@H]1[C@H](O)[C@@H](C)/C=C/C=C/C=C/C=C/C=C/C=C/C=C/[C@H](O[C@@H]2O[C@H](C)[C@@H](O)[C@H](NC(=N)N)[C@@H]2O)C[C@@H]2O[C@](O)(C[C@@H](O)C[C@@H](O)[C@H](O)CC[C@@H](O)C[C@@H](O)CC(=O)O[C@H]1C)C[C@H](O)[C@H]2NC(=O)NCCC(N)=O [I-343] | –
12 | 0.5 µg/mL (≈ 0.457 µM) | 0.5 µg/mL (≈ 0.457 µM) | 1 µg/mL (≈ 0.914 µM) | C[C@@H]1[C@H](O)[C@@H](C)/C=C/C=C/C=C/C=C/C=C/C=C/C=C/[C@H](O[C@@H]2O[C@H](C)[C@@H](O)[C@H](NC(=O)CN(C)C)[C@@H]2O)C[C@@H]2O[C@](O)(C[C@@H](O)C[C@@H](O)[C@H](O)CC[C@@H](O)C[C@@H](O)CC(=O)O[C@H]1C)C[C@H](O)[C@H]2NC(=O)NCCC(N)=O [I-344] | –
13 | 0.5 µg/mL (≈ 0.482 µM) | 0.5 µg/mL (≈ 0.482 µM) | 1 µg/mL (≈ 0.964 µM) | C[C@@H]1[C@H](O)[C@@H](C)/C=C/C=C/C=C/C=C/C=C/C=C/C=C/[C@H](O[C@@H]2O[C@H](C)[C@@H](O)[C@H](NC(=N)N)[C@@H]2O)C[C@@H]2O[C@](O)(C[C@@H](O)C[C@@H](O)[C@H](O)CC[C@@H](O)C[C@@H](O)CC(=O)O[C@H]1C)C[C@H](O)[C@H]2NC(=O)NCC(N)=O [I-346] | –
14 | 0.5 µg/mL (≈ 0.455 µM) | 0.5 µg/mL (≈ 0.455 µM) | 1 µg/mL (≈ 0.91 µM) | C[C@@H]1[C@H](O)[C@@H](C)/C=C/C=C/C=C/C=C/C=C/C=C/C=C/[C@H](O[C@@H]2O[C@H](C)[C@@H](O)[C@H](NC(=N)NO)[C@@H]2O)C[C@@H]2O[C@](O)(C[C@@H](O)C[C@@H](O)[C@H](O)CC[C@@H](O)C[C@@H](O)CC(=O)O[C@H]1C)C[C@H](O)[C@H]2NC(=O)NNC(=O)[C@H](O)CO [I-380] | –
15 | 0.25 µg/mL (≈ 0.234 µM) | 1 µg/mL (≈ 0.938 µM) | 1 µg/mL (≈ 0.938 µM) | CNC(=O)N[C@H]1[C@@H]2C[C@@H](O[C@@H]3O[C@H](C)[C@@H](O)[C@H](N(CCCN)CCCN)[C@@H]3O)/C=C/C=C/C=C/C=C/C=C/C=C/C=C/[C@H](C)[C@@H](O)[C@@H](C)[C@H](C)OC(=O)C[C@H](O)C[C@H](O)CC[C@@H](O)[C@H](O)C[C@H](O)C[C@](O)(C[C@@H]1O)O2 [I-383] | –
